The text below walks through data of patent publication US6166066A, “Cannabinoids selective for the CB2 receptor” (The University of Connecticut, priority 1999, dated 2000).

Assay [1] has as its system CB1 receptor. Conditions: in the brain; background; cited from earlier work.
The test system of assay [2] is CB2 receptor. The settings on record: in the spleen; background; cited from earlier work.
Assay [3] deals with T1, CB2 receptor (Mus musculus, UniProt P47936).
T1 construct: Mouse spleen was used as a source of CB2 receptors; from tissue; host or cells: mouse spleen
Nature of the assay: Radioligand binding assay ([H^3]CP-55,940), mouse spleen as source of CB2. The settings on record: for pKi: mouse spleen, conducted in the same manner as for CB1, Ki from IC50 (Cheng and Prusoff). Here is the method:
(§1) Approximately 30 μg of tissue was incubated in silanized 96 well microtiter plate with TME containing 0.1% essentially fatty acid free bovine serum albumin (BSA), 0.8 nM [H^3 ]CP-55,940 and various concentrations of the test compound in a final volume of 200 μL. Assays were incubated at 30° C. for 1 hour. The samples were filtered using Packard Filtermate 196 and Whatman GF/C Filterplates and washed with wash buffer (TME) containing 0.5% BSA. Radioactivity was detected using MicroScint 20 scintillation cocktail added directly to the dried filterplates, and the filterplates were counted using a Packard Instruments Top-Count. Nonspecific binding was assessed using 100 nM CP-55,940. Data collected from three independent experiments performed with duplicate determinations were normalized between 100% and 0% specific binding for [H^3 ]CP-55,940, determined using buffer and 100 nM CP-55,940. The normalized data was analyzed using a 4 parameter nonlinear logistic equation to yield IC50 values. Data from at least two independent experiments performed in duplicate were used to calculate IC50 values which were convered to Ki values using the assumptions of Cheng and Prusoff, Biochem. Pharmacol. 22:3099 (1973), the entire teachings of which are incorporated by reference.
Mouse spleen was used as a source of CB2 receptors to assess binding affinity of analogs described in this invention. The CB2 binding assay was conducted in the same manner as for CB1. Silanized centrifuge tubes were used throughout to minimize receptor loss due to adsorption.

Assay [4] concerns the target T2, CB1 receptor (Rattus norvegicus, UniProt P20272).
T2 construct: rat forebrain membranes as a source of CB1; from tissue; host or cells: rat brain membranes (called forebrain; prepared from whole brains minus the cerebral cortex)
Put plainly: Radioligand binding assay ([H^3]CP-55,940), rat forebrain membranes as source of CB1. The settings on record: 0.8 nM [H^3]CP-55,940, 30° C., 1 hour, Ki from IC50 (Cheng and Prusoff). Here is the method:
The binding affinities of the novel compounds described in this invention for the central cannabinoid receptor were assessed using rat forebrain membranes as a source of CB1. Membranes were prepared as described by the method of Dodd et al., Brain Res. 226:107 (1981), the entire teachings of which are incorporated herein by reference. Rat whole brains minus the cerebral cortex were diced with a razor blade and homogenized in 0.32 M sucrose, pH 7.4. The resulting suspension was spun at 400×g at 4° C. The supernatant was decanted and layered over 1.2 M sucrose in TME buffer (25 mM Tris base, 5 mM MgCl2 1 mMEDTA, pH 7.4) and spun at 109,000×g. The interface containing plasma membrane protein was collected, pooled and layered over 0.8 M sucrose in TME, pH 7.4. The pellet was carefully resuspended in TME, pH 7.4 and the total protein content was assayed by the method of Markwell et al., Anal. Biochem. 87:206 (1978), the entire teachings of which are incorporated herein by reference. Protein was aliquotted, frozen under liquid nitrogen and stored at -80° C. until use.
as §1

pKi: −log10 of the molar value.

T2 sequence (P20272 whole entry): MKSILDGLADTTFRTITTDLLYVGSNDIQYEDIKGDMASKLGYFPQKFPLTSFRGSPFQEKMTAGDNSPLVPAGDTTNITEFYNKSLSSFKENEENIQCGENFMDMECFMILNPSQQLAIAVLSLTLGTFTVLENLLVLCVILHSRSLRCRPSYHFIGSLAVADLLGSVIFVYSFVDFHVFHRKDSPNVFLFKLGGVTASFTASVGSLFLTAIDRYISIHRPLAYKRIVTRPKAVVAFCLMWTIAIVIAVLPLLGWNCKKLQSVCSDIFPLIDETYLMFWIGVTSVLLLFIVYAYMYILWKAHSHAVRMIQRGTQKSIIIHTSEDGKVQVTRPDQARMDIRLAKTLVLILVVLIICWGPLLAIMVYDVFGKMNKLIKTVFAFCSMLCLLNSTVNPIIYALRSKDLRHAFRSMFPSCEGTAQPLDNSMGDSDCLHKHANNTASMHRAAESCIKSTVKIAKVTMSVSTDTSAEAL
T1 sequence (P47936 whole entry): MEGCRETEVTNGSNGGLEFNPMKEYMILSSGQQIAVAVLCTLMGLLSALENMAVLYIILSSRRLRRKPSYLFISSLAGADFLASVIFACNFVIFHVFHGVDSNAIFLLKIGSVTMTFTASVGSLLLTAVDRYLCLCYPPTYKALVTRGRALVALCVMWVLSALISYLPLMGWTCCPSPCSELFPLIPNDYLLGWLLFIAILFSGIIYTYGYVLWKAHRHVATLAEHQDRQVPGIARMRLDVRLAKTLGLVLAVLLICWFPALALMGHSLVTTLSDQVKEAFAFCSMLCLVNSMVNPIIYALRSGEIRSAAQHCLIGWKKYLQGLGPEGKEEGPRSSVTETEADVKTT

For the compound `CCCCCc1cc(O)c2c(c1)OC(C)(C)C1CC=C(C)CC21` (single isomer, unassigned) [Δ^8 -Tetrahydrocannabinol], the “binding to the CB1 receptor” value in the assay on CB1 receptor [1] is reported as “binds”. Besides, the “binding to the CB2 receptor” value in the assay with CB2 receptor [2] is recorded as “binds”.

By pKi is commonly meant the Ki on a negative log10 scale, so that one unit is a factor of ten. Low readings indicate a high Ki, high ones a low Ki. For the compound `CCCCCCC1CCc2cc(O)c3c(c2C1)OC(C)(C)C1CC=C(C)CC31` (stereo not shown) [AM855], the pKi at CB2 receptor [3] was 7.23; at CB1 receptor [4], 7.65.

In the case of `CC1=CCC2C(C1)c1c(cc3c(c1O)C1CC(CCC1C)C3(C)C)OC2(C)C` (stereo not shown) [AM725], the pKi on CB2 receptor [3] was 6.55; on CB1 receptor [4] it was 3.44.

For `CCCCCCC1CCCc2c1cc(O)c1c2OC(C)(C)C2CC=C(C)CC12` (stereo not shown) [AM858], the values for the pKi at CB2 receptor [3] and on CB1 receptor [4] were 6.34 and 6.28, respectively.

As to `CCCCCC1CCc2c(cc3c(c2O)C2CC(C)=CCC2C(C)(C)O3)C1` (stereo not shown) [AM856], the pKi at CB2 receptor [3] was 6.79; on CB1 receptor [4], 6.40.

For the compound `CC1=CCC2C(C1)c1c(cc3c(c1O)C1CC(CCC1C)C3(C)C)OC2(C)C` (stereo not shown) [AM724], on CB2 receptor [3] (CB2 (mouse spleen) versus CB1 (rat forebrain)), the “affinity for the CB2 receptor relative to the CB1 receptor” value is listed as “about 400 times”. For the same compound, the pKi at CB2 receptor [3] was 7.77; at CB1 receptor [4], 5.16.
